Results taken from publication PMC10265666, “Lung SPLUNC1 Peptide Derivatives in the Lipid Membrane Headgroup Kill Gram-Negative Planktonic and Biofilm Bacteria” (Biomacromolecules, 2023).
Positions of bridges follow the written chain, without caps; N, C: chain ends. Non-standard residues stand in square brackets, D forms with d. Residues, ends and D or L forms follow the SMILES beside them. *: point of attachment. X1 = CC[C@H](C)CCCCC(=O)*; Dab = NCC[C@H](N)C(=O)O

System: Klebsiella pneumoniae, 24 clinical isolates and 1 lab strain
Assay type: cell-based
Experimental: Minimum inhibitory concentration (MIC, defined as the minimum AMP concentration to prevent bacterial growth) and biofilm data were obtained by UV–vis spectroscopy using a BioTek Epoch 2 microplate reader.
K. pneumoniae substrains were grown overnight using 50 mL plastic conical tubes on a shaker platform at 37 °C. The following day, serial dilutions of the four SPLUNC1 peptides and LL-37 were tested against these 25 substrains of K. pneumoniae using a 96-well plate. […] Following the addition of the peptides at the tested concentrations from serial dilutions to the K. pneumoniae substrains, the plates were incubated at 37 °C for 16 h. Then, visible spectroscopy at λ = 570 nm was performed to determine the bacterial absorption in each well. Those wells with an optical density reading above a threshold value were deemed resistant to the peptide, while those that were below the threshold value were deemed sensitive to the peptide. The threshold value was determined using Gen5 software with the Di lab Growth Inhibition Assay protocol.
Average MICs and standard deviations were calculated by first averaging the absorbances as a function of AMP concentration in all of the bacterial strains from four total data sets. Then, the average MICs were determined from the averaged absorbances. The standard deviations of the MICs were calculated from each of the absorbances that were used to calculate the average. Then, the standard deviations were averaged across substrains for the graph. These procedures were used to obtain an average MIC with standard deviation across all 25 substrains for one peptide, in order to compare peptide efficacy. Typically, many more substrains are used to obtain an average MIC, so this average MIC may change if thousands of substrains are compared.

LL-37: the human cathelicidin, natural AMP control [reference compound]
antibacterial efficacy (tested G(−) bacteria (K. pneumoniae)): ineffective

CC[C@H](C)CCCCC(=O)N[C@@H](CCN)C(=O)N[C@H](C(=O)N[C@@H](CCN)C(=O)N[C@H]1CCNC(=O)[C@H]([C@@H](C)O)NC(=O)[C@H](CCN)NC(=O)[C@H](CCN)NC(=O)[C@H](CC(C)C)NC(=O)[C@@H](CC(C)C)NC(=O)[C@H](CCN)NC1=O)[C@@H](C)O [colistin, reference compound] (X1-[Dab]T[Dab][Dab][Dab][dL]L[Dab][Dab]T; lactam 4-C (inferred); N-terminus assumed)
average MIC, colistin-susceptible substrains only (13 colistin-susceptible K. pneumoniae substrains): 0.88 µM
MIC in the colistin-sensitive substrains (colistin-sensitive K. pneumoniae substrains): < 2 µM
